The values below come from paper PMC9421656, “Beyond Retigabine: Design, Synthesis, and Pharmacological Characterization of a Potent and Chemically Stable Neuronal Kv7 Channel Activator with Anticonvulsant Activity” (Journal of Medicinal Chemistry, 2022).

Data set [1] can be described thus: Plasma concentration-time course and half-life in rats. As to conditions: Sprague-Dawley, rat, in vivo, ip, 3 mg/kg.
Description: The drug half-lives were calculated using GraphPad Prism 8.0.2 (GraphPad Software, LaJolla, CA).
Returning to 40% B in 0.10 min. The flow rate was set at 0.5 mL/min. The column oven was set at 45 °C, and 5 μL of extract was injected. All additives and mobile phases were LCMS-grade and purchased from Merck (Milan, Italy).
The ESI was operated in positive mode. […] Interface temperature, desolvation line temperature, and heat block temperature were set, respectively, to 250, 250, and 350 °C. Nebulizing, drying (N2), and heating gas (air) were set, respectively, to 3, 10, and 10 L/min.
Another data set can be described thus: in vivo. As for the experimental part: The animals were sacrificed after 60 min, and brain and blood were collected.
For the assessment of plasmatic concentration, 20 μL of plasma was treated with 100 μL of methanol in a test tube. The tube was vortexed for 30 s. Then, the sample was centrifuged for 10 min at 14680 rpm, at 4 °C. 90 μL of supernatant was dried under nitrogen, reconstituted in 150 μL of MeOH, and then injected into the UHPLC–MS/MS.
Frozen brain tissues were lyophilized overnight, then weighed, carefully homogenized, and extracted with methanol in a 10 mg:[…] tissue:solvent ratio. The samples were vortexed for 30 s, treated in an ultrasonic bath for 5 min, and then centrifuged for 10 min at 14680 rpm, at 4 °C.
Returning to 40% B in 0.10 min.
The ESI was operated in positive mode.

A short description of data set [2]: Chemical stability in aqueous buffer without light exposure. In kind it is physicochemical. As to conditions: 3 h, avoiding UV light exposure. As for the experimental part: […]. The reduced electron availability at N2 and N4 due to the presence of fluorine atom in position 3 of compound 60 strongly reduces also the first photo-oxidative step, thus conferring remarkable photostability.
Photostability experiments were performed by dissolving compounds in DMSO and then diluting in buffered aqueous solutions at pH 7.4 to a final concentration of 10 μM. 1 cm quartz cells, filled with the abovementioned solutions, were irradiated by a UV lamp (UV Consulting TQ 150 equipped with Duran 50 sleeve and 150 W power supply unit, Peschl, Germany) at a fixed distance of 20 cm from the UV source. Control samples were maintained at 37 °C, wrapped with aluminum foil to avoid light exposure, and used to assess chemical stability of the compounds. At predetermined intervals, aliquots were withdrawn and analyzed by UHPLC in order to assess the concentration decrease of the starting materials and the presence of the dimers usually formed by retigabine.
Photostability and chemical stability experiments were carried out on a Kinetex^TM C18 150 × 2.1 mm × 2.6 μm (100 Å) column (Phenomenex, Bologna, Italy). […] Data acquisition was set in the range 190–800 nm, and chromatograms were monitored at 224 nm to assess the decrease in concentration of the starting material, while a wavelength of 550 nm was used to eventually detect dimerization.

Another data set concerns the target T1, Kv7.4 channels (Homo sapiens, UniProt P56696).
T1 construct: expressed in transfected cells; host or cells: CHO cells
Description: Whole-cell patch-clamp electrophysiology in CHO cells expressing Kv7.4. In kind it is cell-based. As to conditions: 0.1 μM, Kv7.4 currents. As for the experimental part: In order to evaluate the effects of compound 60 on other Kv7 channels, its ability to activate Kv7.4 channels expressed in CHO cells was also investigated. […]. During the recording, constant perfusion of extracellular solution was maintained. The extracellular solution contained (in mM): 138 NaCl, 2 CaCl2, 5.4 KCl, 1 MgCl2, 10 glucose, and 10 HEPES, at pH 7.4, with NaOH. The pipette (intracellular) solution contained (in mM): 140 KCl, 2 MgCl2, 10 EGTA, 10 HEPES, 5 Mg^2+-ATP, at pH 7.3–7.4, with KOH. Current was recorded using an Axopatch-200A amplifier, filtered at 5 kHz, and digitized using a DigiData 1440A (Molecular Devices). The pCLAMP software (version 10.2) was used for data acquisition and analysis (Molecular Devices). To evaluate the activity of each compound on Kv7.2 + Kv7.3 currents, the cells were clamped at −80 mV and conductance–voltage curves (G/V curves; activation curves) were generated by normalizing to the maximal value of the instantaneous isopotential currents at 0 mV and expressing the normalized values as a function of the preceding voltages. Data were fit to a Boltzmann distribution of the following form: y = max/[1 + exp (V1/2 – V)/k], where V is the test potential, V1/2 is the half-activation potential, and k is the slope factor.
(In general: Patch clamp records ionic current or voltage across a cell membrane.)

For the molecule `CCOC(=O)Nc1ccc(NCc2ccc(F)cc2)cc1N` [RET, retigabine], in data set [1], the half-life was 2.4 h.
In the case of `CC(C)(C)CC(=O)Nc1ccc(NCc2ccc(C(F)(F)F)cc2)c(F)c1N` [compound 60, N-(2-Amino-3-fluoro-4-((4-(trifluoromethyl)benzyl)amino)phenyl)-3,3-dimethylbutanamide], the Kp at 1 h in “in vivo” (male, C57Bl/6, mouse, in vivo, ip, 1 mg/kg) was 40.4. Further, the concentration at 60 min in “in vivo” (male, C57Bl/6, mouse, in vivo, ip, 1 mg/kg, Brain concentration) stood at 727000 ± 179000 ng/g. For the same molecule, the concentration at 60 min in “in vivo” (male, C57Bl/6, mouse, in vivo, ip, 1 mg/kg, Plasma concentration) amounted to 18200 ± 3700 ng/g. Moreover, the “Brain/plasma ratio higher than that of retigabine” value in the data set “in vivo” (mice, 1 mg/kg i.p., 60 min) is 18 times. Further, the Chemical stability entry in data set [2] is reported as “showed chemical stability”. At Kv7.4 channels, this molecule came in with an Idrug/Icontrol of 2.5 ± 0.3 and a ΔV1/2 of −29.2 ± 4.4 mV.

Broadly, the half-life is how long it takes for the measured level to halve. Read a low half-life as rapid decline.
